From US11357856B2, “Lipids for delivery of active agents” (Acuitas Therapeutics, Inc., priority 2017, dated 2022)

Experiments:
[1] = Determination of pKa of formulated lipids (TNS fluorescence assay in lipid nanoparticles); format: physicochemical; settings: cationic lipid formulated in lipid nanoparticles (cationic lipid/DSPC/cholesterol/PEG-lipid 50/10/38.5/1.5 mol %); pH of half-maximal TNS fluorescence
Experimental: As described elsewhere, the pKa of formulated cationic lipids is correlated with the effectiveness of LNPs for delivery of nucleic acids (see Jayaraman et al, Angewandte Chemie, International Edition (2012), 51(34), 8529-8533; Semple et al, Nature Biotechnology 28, 172-176 (2010)). The preferred range of pKa is ˜5 to ˜7. […] Lipid nanoparticles comprising cationic lipid/DSPC/cholesterol/PEG-lipid (50/10/38.5/1.5 mol %) in PBS at a concentration of 0.4 mM total lipid are prepared using the in-line process as described in Example 1. TNS is prepared as a 100 μM stock solution in distilled water. Vesicles are diluted to 24 μM lipid in 2 mL of buffered solutions containing, 10 mM HEPES, 10 mM MES, 10 mM ammonium acetate, 130 mM NaCl, where the pH ranged from 2.5 to 11. An aliquot of the TNS solution is added to give a final concentration of 1 μM and following vortex mixing fluorescence intensity is measured at room temperature in a SLM Aminco Series 2 Luminescence Spectrophotometer using excitation and emission wavelengths of 321 nm and 445 nm. A sigmoidal best fit analysis is applied to the fluorescence data and the pKa was measured as the pH giving rise to half-maximal fluorescence intensity.

[2] = test system: luciferase expression in the liver (FLuc mRNA); test: Luciferase mRNA in vivo evaluation using lipid nanoparticle compositions (liver luciferase expression); set-up: species or system mice; settings: LNP 50/10/38.5/1.5 (PEG-DMA) or 47.5/10/40.8/1.7, tail vein injection, liver 4 hours after administration; for Liver Luc @ 0.3 mg/kg (ng luc/g liver): 0.3 mg mRNA/kg; for Liver Luc @ 1.0 mg/kg (ng luc/g liver): 1.0 mg mRNA/kg; for Liver Luc @ 0.5 mg/kg (ng luc/g liver): 0.5 mg mRNA/kg
Experimental: Lipid nanoparticles are prepared and tested according to the general procedures described in PCT Pub. Nos. WO 2015/199952 and WO 2017/004143, the full disclosures of which are incorporated herein by reference. Briefly, cationic lipid, DSPC, cholesterol and PEG-lipid are solubilized in ethanol at a molar ratio of about 50:10:38.5:1.5 or about 47.5:10:40.8:1.7. Lipid nanoparticles (LNP) are prepared at a total lipid to mRNA weight ratio of approximately 10:1 to 30:1. The mRNA is diluted to 0.2 mg/mL in 10 to 50 mM citrate or acetate buffer, pH 4. Syringe pumps are used to mix the ethanolic lipid solution with the mRNA aqueous solution at a ratio of about 1:5 to 1:3 (vol/vol) with total flow rates above 15 mL/min. The ethanol is then removed and the external buffer replaced with PBS by dialysis. Finally, the lipid nanoparticles are filtered through a 0.2 μm pore sterile filter. Lipid nanoparticle particle size is approximately 55-95 nm diameter, and in some instances approximately 70-90 nm diameter as determined by quasi-elastic light scattering using a Malvern Zetasizer Nano ZS (Malvern, UK).
Studies are performed in 6-8 week old female C57BL/6 mice (Charles River) or 8-10 week old CD-1 (Harlan) mice (Charles River) according to guidelines established by an institutional animal care committee (ACC) and the Canadian Council on Animal Care (CCAC). Varying doses of mRNA-lipid nanoparticle are systemically administered by tail vein injection and animals euthanized at a specific time point (e.g., 4 hours) post-administration. Liver and spleen are collected in pre-weighed tubes, weights determined, immediately snap frozen in liquid nitrogen and stored at −80° C. until processing for analysis.
For liver, approximately 50 mg is dissected for analyses in a 2 mL FastPrep tubes (MP Biomedicals, Solon Ohio). ¼″ ceramic sphere (MP Biomedicals) is added to each tube and 500 μL of Glo Lysis Buffer—GLB (Promega, Madison Wis.) equilibrated to room temperature is added to liver tissue. Liver tissues are homogenized with the FastPrep24 instrument (MP Biomedicals) at 2×6.0 m/s for 15 seconds. Homogenate is incubated at room temperature for 5 minutes prior to a 1:4 dilution in GLB and assessed using SteadyGlo Luciferase assay system (Promega). Specifically, 50 μL of diluted tissue homogenate is reacted with 50 μL of SteadyGlo substrate, shaken for 10 seconds followed by 5 minute incubation and then quantitated using a CentroXS^3 LB 960 luminometer (Berthold Technologies, Germany). The amount of protein assayed is determined by using the BCA protein assay kit (Pierce, Rockford Ill.). Relative luminescence units (RLU) are then normalized to total ug protein assayed. To convert RLU to ng luciferase a standard curve is generated with QuantiLum Recombinant Luciferase (Promega).
The FLuc mRNA (L-6107 or L-7202) from Trilink Biotechnologies will express a luciferase protein, originally isolated from the firefly, photinus pyralis. FLuc is commonly used in mammalian cell culture to measure both gene expression and cell viability. It emits bioluminescence in the presence of the substrate, luciferin. This capped and polyadenylated mRNA is fully substituted with respect to uridine and/or cytidine nucleosides.
The cationic lipids shown in Table 2 have previously been tested with nucleic acids. For comparative purposes, these lipids were also used to formulate lipid nanoparticles containing the FLuc mRNA (L-6107) using an in line mixing method, as described in Example 1 and in PCT/US10/22614, which is hereby incorporated by reference in its entirety. Lipid nanoparticles were formulated using the following molar ratio: 50% Cationic lipid/10% distearoylphosphatidylcholine (DSPC)/38.5% Cholesterol/1.5% PEG lipid (“PEG-DMG”, i.e., 1-(monomethoxy-polyethyleneglycol)-2,3-dimyristoylglycerol, with an average PEG molecular weight of 2000). In alternate embodiments, cationic lipid, DSPC, cholesterol and PEG-lipid are formulated at a molar ratio of approximately 47.5:10:40.8:1.7. […]

| SMILES | pKa [1] | Liver Luc @ 0.3 mg/kg (ng luc/g liver) [2] [ng luc/g liver] | Liver Luc @ 1.0 mg/kg (ng luc/g liver) [2] [ng luc/g liver] | Liver Luc @ 0.5 mg/kg (ng luc/g liver) [2] [ng luc/g liver] |
| --- | --- | --- | --- | --- |
| CCCCCCCCC(CCCCCC)CN(CCCCN(C)C)CC(CCCCCC)CCCCCCCC (stereo not drawn) [Compound 4] | 5.55 | 87 ± 11 | 233 ± 121 |  |
| CCCCCCCCC(CCCCCC)CN(CCCCCN(C)C)CC(CCCCCC)CCCCCCCC (stereo not drawn) [Compound 5] | 5.77 | 2840 ± 757 | 13739 ± 7631 |  |
| CCCCCCCCC(CCCCCC)CN(CCCCCCN(C)C)CC(CCCCCC)CCCCCCCC (stereo not drawn) [Compound 15] | 5.91 |  |  | 2417 ± 833 |
| CCCCCCCCC(CCCCCC)CN(CCCCCN(CCO)CCO)CC(CCCCCC)CCCCCCCC (stereo not drawn) [Compound 16] | 5.87 |  |  | 52 ± 26 |
| CCCCCCCCC(CCCCCC)CN(CCCNC)CC(CCCCCC)CCCCCCCC (stereo not drawn) [Compound 17] | 6.49 |  |  | 12 ± 5 |
